From US4861774A, “Method of treating tumors using tetracyclo compounds” (priority 1984, dated 1989)
Converted amounts (≈) assume the structure as drawn.

Columns and labels:
[1] = test system: Escherichia coli NIHJ JC-2; experiment: Antimicrobial activity, serial broth dilution (Test 2), Escherichia coli; assay type: cell-based; conditions: NIHJJC2, overnight incubation at 37° C.
Experimental: (§1) Antimicrobial activity of the FR-900482 substance against some bacteria was determined by a serial broth dilution method in bouillon media for bacteria. Minimum inhibitory concentrations (MIC) were expressed in terms of μg/ml after overnight incubation at 37° C.

[2] = test system: Pseudomonas aeruginosa NCTC-10490; experiment: Antimicrobial activity, serial broth dilution (Test 2), Pseudomonas aeruginosa; assay type: cell-based; conditions: NCTC10490, overnight incubation at 37° C.
Experimental: as §1

B16 Melanoma = B16 Melanoma in mice (Test 5); assay type: in vivo, mice (BDF1); conditions: 10.0 mg/kg i.p., days 1-9
Experimental: B16 Melanoma (1:10 brei, 0.5 ml), maintained s.c. by serial passage in female C57BL/6 mice, was implanted i.p. to female BDF1 mice on day 0, and the test compounds or vehicle were given i.p. to the mice once a day on days 1-9.
(§2) Ten mice were used for each test group, and twenty mice were used for each vehicle-treated control group.
(§3) Drug efficacy against the ascitic tumors is expressed as percentage of the median (mean) survival time of the test group to that of the control group. [formula] .circle.2 Results

Human MX-1 mammary = Human MX-1 mammary tumor in nude mice (Test 9); assay type: in vivo, human (in BALB/c nu/nu mice); conditions: 10.0 mg/kg i.v., days 11, 15 & 19; evaluation day 27
Experimental: Human LX-1 lung or MX-1 mammary (each fragment, 2×2×2 mm), maintained s.c. by serial passage in male BALB/c nu/nu mice, was implanted s.c. to male BALB/c nu/nu mice on day 0, and the test compounds or vehicle were given i.v. to the mice once a day on specified days in Table 9.
(§4) Tumor weight was calculated as follows: (Tumor length and width were measured by caliper.)
(§5) Tumor weight (mg)=1/2×a×b^2, where a represents length and b represents width (mm).
Tumor weights (initial) and (last) were calculated on the first injection day (just before dosing) and on day 21, 27 or 28 (the last evaluation day), respectively.
Five mice were used for each test group and 5 or 10 mice were used for each vehicle-treated control group.
(§6) Drug efficacy was expressed as percentage of mean tumor weight of the test group to that of the control group. [formula]

AMC60 Fibrosarcoma = experiment: in vivo rat ascitic tumor model, AMC60 Fibrosarcoma (Test 8); set-up: species or system rats (ACI/N); conditions: 3.2 mg/kg i.p., days 1, 5 and 9; median survival time
Text: AMC60 Fibrosarcoma (1×10^6 cells), maintained i.p. by serial passage in female ACI/N rats, was implanted i.p. to female ACI/N rats on day 0, and the test compounds or vehicle were given i.p. to the rats once a day on days 1, 5 and 9. Seven rats were used for each test group or vehicle-treated control group.
(§7) Drug efficacy against the ascitic tumors is expressed as percentage of the median survival time of the test group to that of the control group. [formula]

EL4 Lymphoma = EL4 Lymphoma in mice (Test 6); assay type: in vivo, mice (BDF1); conditions: 10.0 mg/kg i.p., days 1, 5 and 9; median survival time
Text: EL4 Lymphoma (1×10^6 cells), maintained i.p. by serial passage in female C57BL/6 mice, was implanted i.p. to female BDF1 mice on day 0, and the test compounds or vehicle were given i.p. to the mice once a day on days 1, 5 and 9.
(§8) Ten mice were used for each test group and twenty mice were used for each vehicle-treated control group.
as §7

L1210 Leukemia = L1210 Leukemia ascitic tumor in mice (Test 5); assay type: in vivo, mice (BDF1 or CDF1); conditions: 10.0 mg/kg i.p., days 1-9, BDF1 mice
Text: L1210 Leukemia (1×10^5 cells), maintained i.p. by serial passage in female DBA/2 mice, was implanted i.p. to female BDF1 or CDF1 mice on day 0, and the test compounds or vehicle were given i.p. to the mice once a day on days 1-9.
as §2, §3

MM46 Mammary carcinoma = MM46 Mammary carcinoma in mice (Test 6); assay type: in vivo, mice (C3 H/HeN); conditions: 3.2 mg/kg i.p., days 1, 5 and 9; median survival time
Text: MM46 Mammary carcinoma (1×10^6 cells), maintained i.p. by serial passage in female C3 H/HeN mice, was implanted i.p. to female C3 H/HeN mice on day 0, and the test compounds or vehicle were given i.p. to the mice once a day on days 1, 5 and 9.
as §8, §7

[3] = test system: Human LC-6-JCK lung carcinoma; experiment: Human LC-6-JCK lung carcinoma in nude mice (Test 10); assay type: in vivo, human (in BALB/c nu/nu mice); conditions: 10.0 mg/kg i.v., days 12, 16 and 20; evaluation day 28
Experimental: Human LC-6-JCK lung or SC-6-JCK stomach (each fragment, 2×2×2 mm), maintained s.c. by serial passage in male BALB/c nu/nu mice, was implanted s.c. to male BALB/c nu/nu mice on day 0, and the test compounds were given i.v. to the mice once a day on days 12, 16 and 20.
as §4, §5
Tumor weights (initial) and (last) were calculated on the first injection day (just before dosing) and on day 28 (the last evaluation day), respectively.
Five mice were used for each test group and four or five mice were used for each vehicle-treated control.
as §6

Ehrlich carcinoma = Ehrlich carcinoma in mice (Test 6); assay type: in vivo, mice (ICR); conditions: 3.2 mg/kg i.p., days 1, 5 and 9; median survival time
Text: Ehrlich carcinoma (1×10^6 cells), maintained i.p. by serial passage in female ICR mice, implanted i.p. to female ICR mice on day 0, and the test compounds or vehicle were given i.p. to the mice once a day on days 1, 5 and 9.
as §8, §7

[4] = test system: Lymphocytic leukemia P388; experiment: Antitumor activity against lymphocytic leukemia P388 in mice (Test 1); assay type: in vivo, mice (BDF1); conditions: for T/C: mean survival time treated/control
Experimental: The antitumor activity of FR-900482 substance was determined in experimental tumor system in mice.
Lymphocytic leukemia P388 was implanted intraperitoneally into BDF1 mice at an inoculum size of 1×10^6 cells per mouse. Twenty-four hours after the implantation of tumor cells, graded doses of the FR-900482 substance were administered to mice intraperitoneally. Treatments were once a day on day 1, 2, 3 and 4 after the tumor inoculation. Control animals received intraperitoneal doses of physiological saline solution. The injection volume was 0.2 ml in all experiments. Six mice were used for each experimental group.
Antitumor activity was evaluated by the mean survival time of a group of mice and also expressed by the T/C % value (mean survival time of treated group/mean survival time of control group, ×100).

## NC(=O)OCC1c2c(O)cc(C=O)cc2N2CC3NC3C1(O)O2 (stereo not drawn) [FR-900482 substance, 4-Formyl-6,9-dihydroxy-14-oxa-1,11-diazatetracyclo[7.4.1.0^2,7.0^10,12]tetradeca-2,4,6-trien-8-ylmethyl carbamate]
[1]
  MIC: 50 µg/mL (≈ 156 µM)
[2]
  MIC: 25 µg/mL (≈ 77.8 µM)
B16 Melanoma
  T/C: 350%
Human MX-1 mammary
  1-T"/C": 100%
AMC60 Fibrosarcoma
  T/C: > 333%
EL4 Lymphoma
  T/C: 169%
L1210 Leukemia
  T/C: > 190%
MM46 Mammary carcinoma
  T/C: > 300%
[3]
  1-T"/C": 100%
Ehrlich carcinoma
  T/C: > 270%
[4]; 1.0 mg/kg i.p., days 1-4
  Mean Survival time: 13.0 days
  T/C: 118%
[4]; 3.2 mg/kg i.p., days 1-4
  Mean Survival time: 14.0 days
  T/C: 127%
[4]; 5.6 mg/kg i.p., days 1-4
  Mean Survival time: 16.0 days
  T/C: 145%
[4]; 10 mg/kg i.p., days 1-4
  Mean Survival time: 24.5 days
  T/C: 223%
[4]; 18 mg/kg i.p., days 1-4
  Mean Survival time: 29.0 days
  T/C: 264%
[4]; doses between 3.2-18 mg/kg i.p.
  increase in life span in mice: significant increase in life span
[4]; i.p., days 1-4
  activity against the leukemia P388: quite active
Solubility; acetone
  Solubility: Insoluble
Solubility; chloroform
  Solubility: Insoluble
Solubility; ethyl acetate
  Solubility: Insoluble
Solubility; methanol
  Solubility: Soluble
Solubility; water
  Solubility: Soluble
